Assay results: ChEMBL document CHEMBL3621157, “Design, synthesis and biological evaluation of novel 1,2,4-triazolo and 1,2,4-triazino[4,3-a]quinoxalines as potential anticancer and antimicrobial agents” (2015)
≈ marks a conversion by molar mass, not a printed value.

Columns and labels:
Format in all cases: functional
[1] = Growth inhibition of human HOP92 cells incubated for 48 hrs by sulforhodamine B assay; conditions: HOP-92, 48 h
[2] = tested on: A498; experiment: Growth inhibition of human A498 cells incubated for 48 hrs by sulforhodamine B assay; conditions: A498, 48 h
[3] = tested on: SK-MEL-2; experiment: Growth inhibition of human SK-MEL-2 cells incubated for 48 hrs by sulforhodamine B assay; conditions: SK-MEL-2, 48 h
[4] = Growth inhibition of human LOXIMVI cells incubated for 48 hrs by sulforhodamine B assay; conditions: LOX IMVI
[5] = Growth inhibition of human RPMI8226 cells incubated for 48 hrs by sulforhodamine B assay; conditions: RPMI-8226, 48 h
[6] = tested on: Pseudomonas aeruginosa; experiment: Antimicrobial activity against Pseudomonas aeruginosa ATCC 10145 incubated for 24 hrs by two-fold serial broth dilution method; conditions: ATCC 10145, 24 h
[7] = tested on: UO-31; experiment: Growth inhibition of human UO31 cells incubated for 48 hrs by sulforhodamine B assay; conditions: UO-31, 48 h
[8] = Growth inhibition of human EKVX cells incubated for 48 hrs by sulforhodamine B assay
[9] = tested on: UACC-62; experiment: Growth inhibition of human UACC62 cells incubated for 48 hrs by sulforhodamine B assay; conditions: UACC-62, 48 h
[10] = tested on: SNB-75; experiment: Growth inhibition of human SNB75 cells incubated for 48 hrs by sulforhodamine B assay; conditions: SNB-75, 48 h
[11] = tested on: HCT-15; experiment: Growth inhibition of human HCT15 cells at 10 uM incubated for 48 hrs by sulforhodamine B assay; conditions: HCT-15, 48 h, read-out: GI
[12] = tested on: Staphylococcus aureus; experiment: Antimicrobial activity against Staphylococcus aureus DSM 1104 incubated at 37 degC for 24 hrs by cup diffusion method
[13] = tested on: SNB-19; experiment: Growth inhibition of human SNB19 cells incubated for 48 hrs by sulforhodamine B assay; conditions: SNB-19, 48 h
[14] = Growth inhibition of human RPMI8226 cells at 10 uM incubated for 48 hrs by sulforhodamine B assay; conditions: RPMI-8226, 48 h, read-out: GI
[15] = Growth inhibition of human LOXIMVI cells at 10 uM incubated for 48 hrs by sulforhodamine B assay; conditions: LOX IMVI, read-out: GI
[16] = tested on: HCT-116; experiment: Growth inhibition of human HCT116 cells incubated for 48 hrs by sulforhodamine B assay; conditions: HCT-116, 48 h
[17] = tested on: OVCAR-4; experiment: Growth inhibition of human OVCAR4 cells incubated for 48 hrs by sulforhodamine B assay; conditions: OVCAR-4, 48 h
[18] = tested on: KM12; experiment: Growth inhibition of human KM12 cells at 10 uM incubated for 48 hrs by sulforhodamine B assay; conditions: KM12, 48 h, read-out: GI
[19] = tested on: KM12; experiment: Growth inhibition of human KM12 cells incubated for 48 hrs by sulforhodamine B assay; conditions: KM12, 48 h
[20] = tested on: 786-0; experiment: Growth inhibition of human 786-0 cells incubated for 48 hrs by sulforhodamine B assay; conditions: 786-0, 48 h
[21] = tested on: HOP-62; experiment: Growth inhibition of human HOP62 cells incubated for 48 hrs by sulforhodamine B assay; conditions: HOP-62, 48 h
[22] = tested on: Escherichia coli; experiment: Antimicrobial activity against Escherichia coli ATCC 11775 incubated for 24 hrs by two-fold serial broth dilution method; conditions: ATCC 11775, 24 h
[23] = tested on: SF-268; experiment: Growth inhibition of human SF268 cells at 10 uM incubated for 48 hrs by sulforhodamine B assay; conditions: SF-268, 48 h, read-out: GI
[24] = tested on: PC-3; experiment: Growth inhibition of human PC3 cells at 10 uM incubated for 48 hrs by sulforhodamine B assay; conditions: PC-3, 48 h, read-out: GI
[25] = Growth inhibition of human RXF393 cells incubated for 48 hrs by sulforhodamine B assay; conditions: RXF 393, 48 h
[26] = tested on: Pseudomonas aeruginosa; experiment: Antimicrobial activity against Pseudomonas aeruginosa ATCC 10145 incubated for 24 hrs followed by transfer of colonies to Muller-Hinton agar plate and measured after 18 hrs by two-fold serial broth dilution method
[27] = Growth inhibition of human Hs 578T cells incubated for 48 hrs by sulforhodamine B assay
[28] = tested on: K562; experiment: Growth inhibition of human K562 cells incubated for 48 hrs by sulforhodamine B assay; conditions: K562, 48 h
[29] = Growth inhibition of human BT549 cells incubated for 48 hrs by sulforhodamine B assay; conditions: BT-549, 48 h
[30] = tested on: HT-29; experiment: Growth inhibition of human HT-29 cells incubated for 48 hrs by sulforhodamine B assay; conditions: HT-29, 48 h
[31] = tested on: NCI-H522; experiment: Growth inhibition of human NCI-H522 cells incubated for 48 hrs by sulforhodamine B assay; conditions: NCI-H522, 48 h
[32] = tested on: Pseudomonas aeruginosa; experiment: Antimicrobial activity against Pseudomonas aeruginosa ATCC 10145 incubated at 37 degC for 24 hrs by cup diffusion method
[33] = tested on: TK-10; experiment: Growth inhibition of human TK10 cells incubated for 48 hrs by sulforhodamine B assay; conditions: TK-10, 48 h
[34] = tested on: Bacillus subtilis; experiment: Antimicrobial activity against Bacillus subtilis ATCC 6633 incubated for 24 hrs by two-fold serial broth dilution method; conditions: ATCC 6633, 24 h
[35] = tested on: SR; experiment: Growth inhibition of human SR cells at 10 uM incubated for 48 hrs by sulforhodamine B assay; conditions: read-out: GI
[36] = tested on: SW-620; experiment: Growth inhibition of human SW620 cells incubated for 48 hrs by sulforhodamine B assay; conditions: SW-620, 48 h
[37] = tested on: SK-OV-3; experiment: Growth inhibition of human SKOV3 cells incubated for 48 hrs by sulforhodamine B assay; conditions: SK-OV-3, 48 h
[38] = Growth inhibition of human SF295 cells incubated for 48 hrs by sulforhodamine B assay; conditions: SF-295, 48 h
[39] = Growth inhibition of human SF539 cells incubated for 48 hrs by sulforhodamine B assay; conditions: SF-539, 48 h

Clc1ccccc1-c1nnc2c(Cc3ccccc3)nc3ccccc3n12 gave a GI50 [1] of 3.45 µM, a GI50 [2] of 1.8 µM and a GI50 [3] of 55.8 µM. For the same compound, the GI50 [4] was 3.69 µM, the GI50 [5] was 5.64 µM and the MIC [6] was 50 µg/mL (≈ 135 µM). It also gave a GI50 [7] of 25 µM, a GI50 [8] of 5.96 µM and a GI50 [9] of 7.96 µM. For the same compound, the GI50 [10] was 6.12 µM, the inhibition of growth at 10 µM [11] was 55.4% and the “inhibition zone (IZ)” value [12] was 12 mm. The GI50 [13] was 27.8 µM, the inhibition of growth at 10 µM [14] was 63.8% and the inhibition of growth at 10 µM [15] was 60.6%. For the same compound, the GI50 [16] was 3.21 µM, the GI50 [17] was 8.01 µM and the inhibition of growth at 10 µM [18] was 51.1%. The GI50 [19] was 9.48 µM, the GI50 [20] was 10.4 µM and the GI50 [21] was 12.4 µM. The MIC [22] was 25 µg/mL (≈ 67.4 µM), the inhibition of growth at 10 µM [23] was 47.5% and the inhibition of growth at 10 µM [24] was 60.9%. It also gave a GI50 [25] of 8.45 µM, an MBC [26] of 100 µg/mL (≈ 270 µM) and a GI50 [27] of 9.66 µM. For the same compound, the GI50 [28] was 5.55 µM, the GI50 [29] was 6.72 µM and the GI50 [30] was 9.15 µM. The GI50 [31] was 53.9 µM, the “inhibition zone (IZ)” value [32] was 14 mm and the GI50 [33] was 37.4 µM. It also gave an MIC [34] of 25 µg/mL (≈ 67.4 µM), an inhibition of growth at 10 µM [35] of 84.9% and a GI50 [36] of 43.4 µM. For the same compound, the GI50 [37] was 23.9 µM, the GI50 [38] was 12.3 µM and the GI50 [39] was 24.2 µM.
